Columns and labels:
[1] = biological target: T1, hERG potassium ion channel (Homo sapiens, UniProt Q12809); assay: Inhibition test of hERG potassium ion channel, full-automatic patch clamp (Qpatch), CHO-hERG cells; type: cell-based; details: highest test concentration 40 μM
T1 construct: expressed in transfected cells; host or cells: CHO-hERG cells
Method: To detect the effect of the compounds of the present disclosure to be tested on the hERG potassium ion channel using a full-automatic patch clamp method.
1.1 CHO-hERG cells were cultured in a 175 cm^2 culture bottle, and once the cells grow to a density of 60% to 80%, the culture solution was removed; and the cells were washed with 7 mL of PBS (Phosphate Buffered Saline), and then digested by adding 3 mL of Detachin.
1.2 After the digestion was complete, 7 mL of culture solution was added for neutralization, and the mixture was centrifuged; and the supernatant was pipetted out, and then 5 mL of culture solution was added for resuspension to ensure that the cells reached a density of 2 to 5×10^6/mL.
The single-cell high-impedance sealing and the whole-cell mode formation process were all automatically completed by the Qpatch instrument. After the whole-cell recording mode was obtained, the cells were clamped at −80 millivolt; before a 5 second +40 millivolt depolarization stimulus was given, a 50 millisecond −50 millivolt pre-voltage was given, then repolarized to −50 millivolt for 5 seconds, and then returned to −80 millivolt. Such a voltage stimulus was applied every 15 seconds and recorded for 2 minutes, and then extracellular fluid was given and recorded for 5 minutes, followed by drug administration. […]
The experimental data was analyzed by GraphPad Prism 5.0 software. […]

human FGFR1 = biological target: T2, human FGFR1 (Homo sapiens, UniProt P11362); assay: 33P isotope-labeled kinase activity test (Reaction Biology Corp), FGFR1; type: biochemical; details: 33P-ATP 5 μM, kinase 1.5 nM, 120 min room temperature
T2 construct: purchased Invitrogen PV3146
T2 sequence (P11362 22-822): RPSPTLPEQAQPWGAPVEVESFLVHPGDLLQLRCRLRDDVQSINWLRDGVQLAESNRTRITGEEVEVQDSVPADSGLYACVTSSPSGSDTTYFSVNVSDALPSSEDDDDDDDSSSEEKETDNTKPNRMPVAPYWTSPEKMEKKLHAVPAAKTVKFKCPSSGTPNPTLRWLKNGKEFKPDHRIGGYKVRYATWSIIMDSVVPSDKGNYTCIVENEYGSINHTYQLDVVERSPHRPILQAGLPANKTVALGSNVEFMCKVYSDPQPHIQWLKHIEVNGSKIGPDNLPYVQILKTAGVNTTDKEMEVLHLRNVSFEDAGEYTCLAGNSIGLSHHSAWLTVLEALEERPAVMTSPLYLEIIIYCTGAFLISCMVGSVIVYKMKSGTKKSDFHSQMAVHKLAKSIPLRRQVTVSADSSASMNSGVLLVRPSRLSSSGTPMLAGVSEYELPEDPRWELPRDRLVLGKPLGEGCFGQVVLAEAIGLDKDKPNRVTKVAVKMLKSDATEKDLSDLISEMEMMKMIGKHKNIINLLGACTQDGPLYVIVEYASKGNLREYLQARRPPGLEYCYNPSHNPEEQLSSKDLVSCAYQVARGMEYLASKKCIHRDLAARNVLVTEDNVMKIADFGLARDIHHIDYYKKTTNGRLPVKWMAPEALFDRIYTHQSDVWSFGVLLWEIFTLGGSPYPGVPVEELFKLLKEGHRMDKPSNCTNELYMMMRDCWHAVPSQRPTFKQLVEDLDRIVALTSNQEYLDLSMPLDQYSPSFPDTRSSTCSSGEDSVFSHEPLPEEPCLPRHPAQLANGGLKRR
Method: (§1) The IC50 value was determined using ^33P isotope-labeled kinase activity test (Reaction Biology Corp) to evaluate the inhibitory ability of the compounds to be tested on human FGFR1, FGFR2 and VEGFR2.
(§2) Buffer conditions: 20 mM Hepes (pH 7.5), 10 mM MgCl2, 1 mM EGTA, 0.02% Brij35, 0.02 mg/mL BSA, 0.1 mM Na3VO4, 2 mM DTT, 1% DMSO.
(§3) Test steps: At room temperature, the compounds to be tested were dissolved in DMSO to prepare a 10 mM solution for use. The substrate was dissolved in the newly-prepared buffer, and the kinase to be tested was added thereto and mixed well. The DMSO solution in which the compounds to be tested were dissolved was added to the above-mentioned homogeneous reaction solution using acoustic technology (Echo 550). […] After incubating for 15 minutes, to the reaction solution was added ^33P-ATP (activity: 0.01 μCi/μL, with corresponding concentration listed in Table 10) to start the reaction. […] The kinase activity data was expressed by comparing the kinase activity of the groups containing the compounds to be tested with that of the blank group (containing only DMSO). The IC50 value was obtained by curve fitting using Prism4 software (GraphPad), and the experimental results were shown in Table 11.

[2] = Pharmacokinetic study in mice, cassette intravenous injection and intragastric administration; type: in vivo; details: mouse, plasma, Balb/c female mice; for Vd / AUC(0-t) / clearance / half-life: IV 0.2 mg/kg; for Vd: read-out: Apparent volume of distribution Vdss; for AUC(0-t): read-out: Area under the plasma concentration-time curve from time zero to 24 hours AUC0-24 h; for clearance: read-out: Clearance rate CL; for half-life: read-out: Half-life T1/2 (converted); for bioavailability: PO 1 mg/kg vs IV 0.2 mg/kg, read-out: Bioavailability F; for AUC / Cmax / Tmax: PO 1 mg/kg; for AUC: read-out: Area under the plasma concentration-time curve AUC; for Cmax: read-out: Peak concentration Cmax; for Tmax: read-out: Time to peak Tmax
Method: To evaluate the pharmacokinetic behavior of the compounds of the present disclosure after Cassette intravenous injection and intragastric administration, and to investigate the bioavailability thereof after intragastric administration.
Balb/c female mice aged 7 to 10 weeks were selected, and administered intravenously and orally with the doses of 0.2 mg/kg and 1 mg/kg, respectively. The mice were fasted for at least 12 hours before administration, and feeding was resumed after 4 hours of administration. The mice were free to drink water during the entire experiment. In this experiment, Cassette administration was used, and with regard to the intravenous injection group: an appropriate amount of each compound was weighed, and mixed with 5% DMSO/10% Solutol/85% Water for vortexing to prepare a 0.1 mg/mL of clear solution; the clear solution was filtered with a microporous membrane for later use; and with regard to the intragastric administration group: an appropriate amount of each compound was weighted, and mixed with 90% (25% HP-β-CD/10% Cremophor EL) with pH being adjusted to 4 to 5 to prepare a homogeneous suspension for later use. On the day of the experiment, the animals in the intravenous injection group were administrated with the corresponding compounds via tail vein single injection, with the administration volume of 2 mL/kg; and the animals in the oral group were administrated with the corresponding compounds by single intragastric administration, with the administration volume of 10 mL/kg. The body weight of the animals was weighed before administration, and the administration volume was calculated based on the body weight. The sample collection time was: 0.083 (injection group) h, 0.25 h, 0.5 h, 1 h, 2 h, 4 h, 8 h, and 24 h. Approximately 30 uL of whole blood was collected from the saphenous vein at each time point to prepare plasma for high performance liquid chromatography-tandem mass spectrometry (LC-MS/MS) to determine the concentration. All animals were euthanized by CO2 anesthesia after PK samples at the last time point were collected. The non-compartmental model of WinNonlin™ Version 6.3 (Pharsight, Mountain View, CA) pharmacokinetic software was used to process the plasma concentration, and the pharmacokinetic parameters were calculated using the linear logarithmic trapezoidal method.

[3] = tested on: human gastric cancer SNU-16 subcutaneous xenograft tumor; assay: Anti-tumor activity in mouse subcutaneous xenograft tumor model of human gastric cancer SNU-16; type: in vivo, nude mice; details: day 25, SNU-16 xenograft
Method: To determine the anti-tumor effect of the compounds of the present disclosure in a mouse subcutaneous xenograft tumor model of human gastric cancer SNU-16
preparation of tumor tissues: SNU-16 cells were routinely cultured in an RPMI-1640 culture medium containing 10% fetal bovine serum under the conditions of 5% CO2, 37° C. and saturated humidity.
Each animal was inoculated with 200 μL (8×10^6 cells/mouse) to establish a SNU-16 xenograft model. The animal status was observed regularly, and the tumor diameter was measured with an electronic vernier caliper. The data was input into an Excel spreadsheet to calculate tumor volume and monitor tumor growth.
3) The tumor diameter was measured twice a week to calculate the tumor volume, and the animal body weight was weighted and recorded.
The calculation formula of tumor volume (TV) was: TV (mm^3)=1×w^2/2, where 1 represented the long diameter of the tumor (mm); w represented the short diameter of the tumor (mm).
The anti-tumor efficacy of the compounds was evaluated by TGI (%) or relative tumor proliferation rate T/C (%). […] The relative tumor volume (RTV) was calculated according to the results of the tumor measurement. The calculation formula was RTV=Vt/V0, where V0 was the tumor volume measured at the beginning of the grouping and administration (i.e., D0), and Vt was the tumor volume corresponding to a certain measurement in the mouse. […]

[4] = tested on: human gastric cancer SNU-16 cells expressing FGFR2; assay: Cell activity (proliferation) test of gastric cancer cell line SNU-16, CellTiter-Glo; type: cell-based; details: inhibition of proliferation
Method: To test the inhibitory effect of the compounds on the proliferation of human gastric cancer SNU-16 cells expressing FGFR2.
The compounds used in the test were subjected to 3-fold concentration dilution, the concentration starting from 10 μM and subjected to […], resulting in 9 concentrations: 10 μM, 2.50 μM, 0.62 μM, 0.156 μM, 39.1 nM, 9.8 nM, 2.4 nM, 0.61 nM, and 0.15 nM.
(1) Promega CellTiter-Glo luminescent cell viability assay kit (Promega-G7573).
(2) 2104 EnVision multi-tag reader, PerkinElmer.
The inhibition rate of different doses of the compounds would be calculated in the Excel file, and the IC50 data was obtained by parametric curve fitting (GraphPad Software).

human FGFR2 = biological target: T3, human FGFR2 (Homo sapiens, UniProt P21802); assay: 33P isotope-labeled kinase activity test (Reaction Biology Corp), FGFR2; type: biochemical; details: 33P-ATP 5 μM, kinase 0.45 nM, 120 min room temperature
T3 construct: purchased Invitrogen PV3368
T3 sequence (P21802 22-821): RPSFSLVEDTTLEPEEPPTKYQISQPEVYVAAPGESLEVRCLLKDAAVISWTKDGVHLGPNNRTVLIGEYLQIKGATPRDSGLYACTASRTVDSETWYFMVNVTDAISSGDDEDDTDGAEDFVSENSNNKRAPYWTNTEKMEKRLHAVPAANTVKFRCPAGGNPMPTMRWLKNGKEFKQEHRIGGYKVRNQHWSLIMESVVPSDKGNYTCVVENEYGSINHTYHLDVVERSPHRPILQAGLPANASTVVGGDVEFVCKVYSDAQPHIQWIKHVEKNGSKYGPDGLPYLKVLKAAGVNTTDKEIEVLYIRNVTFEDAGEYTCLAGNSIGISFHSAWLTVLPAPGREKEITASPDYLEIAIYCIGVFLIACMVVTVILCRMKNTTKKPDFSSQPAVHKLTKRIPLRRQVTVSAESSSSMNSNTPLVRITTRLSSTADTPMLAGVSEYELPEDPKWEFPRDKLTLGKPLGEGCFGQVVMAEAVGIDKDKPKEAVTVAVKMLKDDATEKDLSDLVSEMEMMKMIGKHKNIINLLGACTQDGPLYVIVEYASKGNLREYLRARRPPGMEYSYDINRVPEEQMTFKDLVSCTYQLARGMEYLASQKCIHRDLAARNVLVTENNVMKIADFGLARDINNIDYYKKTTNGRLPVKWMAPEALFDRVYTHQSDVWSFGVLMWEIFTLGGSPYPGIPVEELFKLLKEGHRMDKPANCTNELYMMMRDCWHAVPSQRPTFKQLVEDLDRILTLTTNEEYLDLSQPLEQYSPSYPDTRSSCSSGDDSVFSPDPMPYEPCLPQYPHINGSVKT
Method: as §1, §2, §3

human VEGFR2 = biological target: T4, human VEGFR2 (Homo sapiens, UniProt P35968); assay: 33P isotope-labeled kinase activity test (Reaction Biology Corp), VEGFR2; type: biochemical; details: 33P-ATP 20 μM, kinase 1 nM, 120 min room temperature
T4 construct: purchased Invitrogen PR5992C
T4 sequence (P35968 20-1356): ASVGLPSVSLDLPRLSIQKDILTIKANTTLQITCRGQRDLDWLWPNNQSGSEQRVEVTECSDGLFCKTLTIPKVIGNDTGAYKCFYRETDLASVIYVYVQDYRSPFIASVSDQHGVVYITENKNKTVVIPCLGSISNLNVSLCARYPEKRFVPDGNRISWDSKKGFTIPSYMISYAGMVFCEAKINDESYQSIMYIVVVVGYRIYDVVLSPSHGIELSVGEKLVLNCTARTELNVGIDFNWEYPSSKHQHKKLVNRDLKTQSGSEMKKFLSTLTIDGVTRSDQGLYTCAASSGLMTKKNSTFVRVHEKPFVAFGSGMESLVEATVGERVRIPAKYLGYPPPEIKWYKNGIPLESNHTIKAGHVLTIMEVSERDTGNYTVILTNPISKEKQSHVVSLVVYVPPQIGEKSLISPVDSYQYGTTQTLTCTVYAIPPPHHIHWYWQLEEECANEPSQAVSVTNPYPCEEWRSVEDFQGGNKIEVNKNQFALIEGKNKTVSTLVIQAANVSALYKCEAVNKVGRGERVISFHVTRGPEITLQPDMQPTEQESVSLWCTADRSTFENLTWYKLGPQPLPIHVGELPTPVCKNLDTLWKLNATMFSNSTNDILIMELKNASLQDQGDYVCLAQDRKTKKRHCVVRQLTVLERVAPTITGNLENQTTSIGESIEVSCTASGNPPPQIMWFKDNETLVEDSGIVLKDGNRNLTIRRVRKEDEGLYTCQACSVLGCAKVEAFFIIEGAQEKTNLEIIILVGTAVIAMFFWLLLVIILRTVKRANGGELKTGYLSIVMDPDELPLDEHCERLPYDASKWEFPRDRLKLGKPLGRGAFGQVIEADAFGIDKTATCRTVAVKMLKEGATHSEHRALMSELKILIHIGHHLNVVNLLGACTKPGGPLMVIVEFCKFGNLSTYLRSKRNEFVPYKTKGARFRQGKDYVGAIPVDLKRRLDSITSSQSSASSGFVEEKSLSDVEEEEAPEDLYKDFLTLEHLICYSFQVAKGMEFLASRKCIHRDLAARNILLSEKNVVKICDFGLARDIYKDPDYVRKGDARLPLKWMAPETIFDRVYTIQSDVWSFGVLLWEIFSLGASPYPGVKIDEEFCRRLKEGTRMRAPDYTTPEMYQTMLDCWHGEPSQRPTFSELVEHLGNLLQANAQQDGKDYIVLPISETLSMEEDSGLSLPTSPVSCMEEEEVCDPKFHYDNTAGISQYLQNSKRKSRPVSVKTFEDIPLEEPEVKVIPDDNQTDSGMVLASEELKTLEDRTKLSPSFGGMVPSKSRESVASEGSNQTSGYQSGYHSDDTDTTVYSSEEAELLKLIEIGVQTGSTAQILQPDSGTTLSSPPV
Method: as §1, §2, §3

T1 sequence (Q12809 whole entry): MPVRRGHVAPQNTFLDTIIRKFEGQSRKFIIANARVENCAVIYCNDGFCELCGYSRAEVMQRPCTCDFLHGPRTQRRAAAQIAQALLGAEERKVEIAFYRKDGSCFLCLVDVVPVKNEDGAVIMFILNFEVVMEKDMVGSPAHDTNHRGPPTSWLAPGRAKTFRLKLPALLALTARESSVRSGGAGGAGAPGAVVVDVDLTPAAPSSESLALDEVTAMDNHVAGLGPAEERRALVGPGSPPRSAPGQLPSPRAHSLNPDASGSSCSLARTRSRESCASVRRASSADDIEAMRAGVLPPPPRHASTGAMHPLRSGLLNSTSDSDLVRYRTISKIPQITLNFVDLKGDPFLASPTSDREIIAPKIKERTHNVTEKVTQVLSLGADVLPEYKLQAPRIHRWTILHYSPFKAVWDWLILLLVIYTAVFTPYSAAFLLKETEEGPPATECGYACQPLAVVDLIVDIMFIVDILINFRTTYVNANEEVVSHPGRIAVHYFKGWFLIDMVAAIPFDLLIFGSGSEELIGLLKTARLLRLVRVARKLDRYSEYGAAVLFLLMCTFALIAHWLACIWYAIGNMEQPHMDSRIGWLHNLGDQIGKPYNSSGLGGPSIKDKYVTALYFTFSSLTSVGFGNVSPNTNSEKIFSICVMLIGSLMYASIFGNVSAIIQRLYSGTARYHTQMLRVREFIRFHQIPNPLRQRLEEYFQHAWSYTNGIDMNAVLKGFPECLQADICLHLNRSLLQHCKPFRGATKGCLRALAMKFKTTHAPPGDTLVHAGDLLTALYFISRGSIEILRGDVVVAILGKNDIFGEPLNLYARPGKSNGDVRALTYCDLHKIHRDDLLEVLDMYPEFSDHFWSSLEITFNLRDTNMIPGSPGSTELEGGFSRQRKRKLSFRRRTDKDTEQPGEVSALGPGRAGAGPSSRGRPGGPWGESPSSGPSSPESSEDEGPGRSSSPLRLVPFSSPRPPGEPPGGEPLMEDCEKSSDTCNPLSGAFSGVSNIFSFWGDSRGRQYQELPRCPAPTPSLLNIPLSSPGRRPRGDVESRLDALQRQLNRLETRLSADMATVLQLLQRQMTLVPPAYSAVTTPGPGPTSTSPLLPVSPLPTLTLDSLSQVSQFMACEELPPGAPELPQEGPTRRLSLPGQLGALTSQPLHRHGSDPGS

Cn1cc(-c2cnc3c(-c4cc(NS(=O)(=O)C5CC5)cc(-c5ccc(F)cc5F)c4)cnn3c2)cn1 [Compound 5]
IC50 [1]: > 40 µM | IC50 (human FGFR1): 0.00934 µM

Cn1cc(-c2ccc3c(-c4cc(NS(=O)(=O)C5CC5)cc(-c5ccc(F)cc5F)c4)cnn3c2)cn1 [Compound 1]
Vd [2]: 1.25 L/kg | AUC(0-t) [2]: 0.751 µM·h | clearance [2]: 8.53 mL/min/kg | half-life [2]: 1.52 h | bioavailability [2]: 74% | AUC [2]: 2.48 µM·h | Cmax [2]: 540 nM | Tmax [2]: 2 h | IC50 (human FGFR1): 0.00629 µM

Cn1cc(-c2ccc3c(-c4cc(NS(C)(=O)=O)cc(-c5ccc(F)cc5F)c4)cnn3c2)cn1 [Compound 4]
TGI (%) (tumor growth inhibition rate) on day 25 ([3]; PO 20/30/20 mpk/QD (30 mg/kg/day from day 9, 20 mg/kg/day from day 12)): 70% | Vd [2]: 1.4 L/kg | AUC(0-t) [2]: 0.548 µM·h | clearance [2]: 12.6 mL/min/kg | half-life [2]: 1.17 h | bioavailability [2]: 73.2% | AUC [2]: 1.9 µM·h | Cmax [2]: 463 nM | Tmax [2]: 2 h | IC50 [4]: 0.0145 µM | IC50 (human FGFR1): 0.00163 µM | IC50 (human FGFR2): 0.0025 µM

Cn1cc(-c2ccc3c(c2)ncn3-c2cc(NS(=O)(=O)C3CC3)cc(-c3ccc(F)cc3F)c2)cn1 [reference compound]
IC50 (human VEGFR2): 0.0272 µM | IC50 (human FGFR1): 0.0222 µM | IC50 (human FGFR2): 0.0299 µM

CCS(=O)(=O)Nc1cc(-c2ccc(F)cc2F)cc(-c2cnn3cc(-c4cnn(C)c4)ccc23)c1 [Compound 2]
TGI (%) (tumor growth inhibition rate) on day 25 ([3]; PO 10 mpk/QD): 74% | Vd [2]: 1.2 L/kg | AUC(0-t) [2]: 1.14 µM·h | clearance [2]: 6.53 mL/min/kg | half-life [2]: 2.12 h | bioavailability [2]: 43.8% | AUC [2]: 1.98 µM·h | Cmax [2]: 388 nM | Tmax [2]: 2 h | IC50 [1]: > 40 µM | IC50 [4]: 0.0163 µM | IC50 (human FGFR1): 0.00286 µM | IC50 (human FGFR2): 0.00266 µM

Reference: US12325703B2, “Fused ring compound as FGFR and VEGFR dual inhibitor” (CGENETECH (SUZHOU, CHINA) CO., LTD., priority 2019, dated 2025)
